Test results taken from patent US5677297A, “Benzazepine-, benzoxazepine- and benzothiazepine-n-acetic acid derivatives, process for their preparation and pharmaceutical compositions containing them” (Solvay Pharmaceuticals GmbH, priority 1995, dated 1997).
pIC50, pKi: −log10 of the molar value.

Tests used:
[1] = target: neutral endopeptidase (NEP), purified NEP (E.C.3.4.24.11) (Homo sapiens, UniProt P08473); experiment: In vitro investigation of the NEP-inhibitory effect (hydrolytic degradation of met-enkephalin); assay type: biochemical; details: substrate met-enkephalin, 37° C., pH 7.4
Method: 2. In vitro investigation of the NEP-inhibitory effect of the substances and determination of the affinity of the substance molecules for the enzyme molecule. […] The Ki (inhibitor constant) of each substance was determined as a measure of its inhibitory activity. The Ki of a test substance with enzyme-inhibiting activity is the dissociation constant for the enzyme/test substance complex or the (enzyme/substrate)--test substance complex and has units of concentration.
To carry out the test, respective 100 μl samples of various incubation solutions containing 10 ng of purified NEP (E.C.3.4.24.11) and in each case different amounts of test substance and of substrate (met-enkephalin)and 50 mM tris buffer (=tris(hydroxymethyl)aminomethane/HCl, pH 7.4) were prepared.
For each test substance, 24 different incubation solutions were prepared with 3 different test substance concentrations respectively combined with met-enkephalin contents of 2, 5, 7, 10, 12, 15, 40 and 100 μm.
In each test, two types of control incubation solutions were also processed, on the one hand enzyme controls which contain no test substance, and on the other hand substrate controls which contain neither enzyme nor test substance.
The incubation solutions were incubated in a shaking water bath at 37° C. for 45 minutes. The enzyme reaction was started after 15 minutes by adding the substrate (metenkephalin) and was stopped at the end of the incubation time by heating at 95° C. for 5 minutes. The stopped incubation solution was then centrifuged at 12,000×g for 3 minutes, and the concentrations of unreacted substrate and of hydrolysis products formed by the enzymatic reaction were determined in the supernatant. For this purpose, samples of each of the respective supernatants were fractionated by HPLC (high-pressure liquid chromatography) on hydrophobized silica gel, and the products of the enzymatic reaction and unreacted substrate were determined by photometry at a wavelength of 205 nm. The HPLC separation was carried out using a column (4.6×250 mm) which contains Encapharm™ 100 RP18 having an average particle size of 5 μm as reversed phase separation material. The solvent flow rate was 1.4 ml/min, and the column was warmed to 40° C. Mobile phase A was 5 mM H3 PO4, pH 2.5, and mobile phase B was acetonitrile +1% 5 mM H3 PO4, pH 2.5.
The Ki for each test substance was calculated in a known manner from the concentrations of hydrolysis products and unreacted substrate measured in the various samples. […] The example numbers indicated in Table B refer to the following preparation examples.

[2] = set-up: species or system mouse (male); details: mouse, in vivo, po, 4320 min
Method: 1. Determination of the minimum toxic dose
Male mice weighing 20-25 g received oral administrations of maximum doses of 300 mg/kg of the test substance. The animals were carefully observed for signs of toxicity for 3 hours. In addition, all signs and deaths over a period of 72 hours after administration were recorded. Accompanying signs were likewise observed and recorded. If death or signs of severe toxicity were observed, further mice were given increasingly lower doses until signs of toxicity no longer appeard. The lowest dose which caused death or signs of severe toxicity is indicated in following Table A as the minimum toxic dose. The example numbers listed in Table A refer to the following preparation examples.

[3] = In vivo determination of the effect on diuresis/natriuresis in volume-loaded rats; set-up: species or system rat (male Wistar); details: volume loading 120 minutes after administration, urine collected over 60 min
Method: 4. In vivo determination of the effect of the substances on diuresis/natriuresis in volume-loaded rats.
The in vivo activity was investigated in volume-loaded rats. In this experiment a high cardiac filling pressure was caused by infusion of isotonic sodium chloride solution, which results in ANP release and thus diuresis/natriuresis.
The tests are carried out with male Wistar rats having a body weight of 200-400 g. Under neuroleptanalgesia (fentanyl; Hypnorm™, manufactured by Janssen), a catheter was placed in the right femoral vein for the baseline infusion and the volume loading with isotonic sodium chloride solution. After the abdominal cavity had been opened, a second catheter was inserted into the bladder, and the urethra was tied off so that it was possible to measure the urine volume, natriuresis and kaliuresis.
The abdominal cavity was closed again and the animals received a continuous infusion with sodium chloride solution (0.5 ml/100 g body weight) throughout the 2 hours of the test. After an equilibration period of 30 minutes, in a preliminary phase before the test substance was given, urine samples were collected three times over a period of 10 minutes in each case. These preliminary values ("predrug" values) were determined in order to check that there was a continuous flow of urine in the test animals.
The solutions containing test substances were then administered intravenously (bolus injection into the femoral vein) or orally (by gavage) to groups of 10 rats each. With both modes of administration, in each case one control group of animals received only placebo solutions which contained no active substance. 5 Minutes after i.v. administration or 120 minutes after oral administration of the substances, the rats were loaded with an increased volume of sodium chloride solution i.v. (2 ml/100 g body weight in 2 minutes) and the urine was collected over a period of 60 min. The amounts of urine produced in this period were determined, and the sodium and potassium contents therein were measured. The increase in excretion which took place under volume loading by comparison with the preliminary values was deduced from the resulting amounts of urine.
Furthermore, the amounts of sodium and potassium excreted under volume loading after administration of test substance are also indicated as a percentage of the amounts of sodium and potassium excreted under volume loading after placebo administration.

[4] = target: T1, endothelin-converting enzyme (ECE) (Homo sapiens, UniProt P42892); experiment: In vitro investigation of the ECE-inhibitory effect (recombinant human ECE in CHO cell membrane fraction); assay type: biochemical; details: 24 μM synthetic peptide substrate, pH 7.0, 37° C., 60 min
T1 construct: expressed in transfected cells; host or cells: CHO cells (Chinese hamster ovary), membrane fraction
T1 sequence (P42892 1-770): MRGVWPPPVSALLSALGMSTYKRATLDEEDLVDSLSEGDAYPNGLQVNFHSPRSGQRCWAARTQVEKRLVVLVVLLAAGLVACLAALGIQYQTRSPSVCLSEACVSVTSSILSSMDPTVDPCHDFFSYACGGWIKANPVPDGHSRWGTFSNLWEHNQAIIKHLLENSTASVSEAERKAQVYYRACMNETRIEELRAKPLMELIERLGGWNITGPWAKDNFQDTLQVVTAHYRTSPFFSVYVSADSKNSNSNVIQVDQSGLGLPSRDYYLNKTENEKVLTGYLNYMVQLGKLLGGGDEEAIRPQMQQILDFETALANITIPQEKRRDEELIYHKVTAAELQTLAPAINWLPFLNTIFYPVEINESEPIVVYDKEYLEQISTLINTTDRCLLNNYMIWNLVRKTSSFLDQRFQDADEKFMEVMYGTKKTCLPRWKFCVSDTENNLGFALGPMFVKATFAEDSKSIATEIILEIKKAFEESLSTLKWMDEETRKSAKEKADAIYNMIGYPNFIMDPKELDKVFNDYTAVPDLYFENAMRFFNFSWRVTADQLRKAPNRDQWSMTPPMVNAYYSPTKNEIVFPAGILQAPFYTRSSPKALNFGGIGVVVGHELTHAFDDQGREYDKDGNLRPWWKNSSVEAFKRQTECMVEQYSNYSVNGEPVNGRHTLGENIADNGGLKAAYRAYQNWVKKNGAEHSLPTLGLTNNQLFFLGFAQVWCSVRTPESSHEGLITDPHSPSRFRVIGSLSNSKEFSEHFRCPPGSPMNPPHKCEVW
Method: 3. In vitro investigations of the ECE-inhibitory effect of the substances.
The IC50 of the substances was determined as a measure of their inhibitory activity. The IC50 of a test substance with enzyme-inhibiting activity is the concentration of the test substance at which 50% of the enzymatic activity of ECE is inhibited.
Preparation of the ECE-containing endothelial cell membrane fraction.
Egg cells from the Chinese hamster (Chinese hamster ovary cells, hereinafter CHO cells) in which there was recombinant expression of human ECE [see Schmidt et al., Federation of European Biochemical Societies Letters 356 238-43 (1994)] were lysed, and the cell membranes were removed by centrifugation at 10,000×g for 10 min. The cell membranes were washed by resuspension and repeated centrifugation three times. The ECE-containing cell membrane fraction was resuspended in 100 mM tris/HCl buffer (tris(hydroxymethyl)aminomethane/HCl, pH 7.0, containing 250 mM NaCl) and stored frozen at -70° C. before the enzyme test.
To carry out the test, respective 100 μl samples of various incubation solutions each containing 5 μg protein from an ECE-containing preparation of endothelial cell membranes and different amounts of test substance and 24 μM substrate (synthetic peptide: H2 N-Asp-Ile-Ala-Trp-Phe-Asn-Thr-Pro-Glu-His-Val-Val-Pro-Tyr-Gly-Leu-Gly-COOH) (SEQ ID NO:1) and 100 mM tris buffer (tris(hydroxymethyl)aminomethane/HCl, pH 7.0, containing 250 mM sodium chloride) were prepared. […]
The incubation solutions were preincubated at 37° C. for 15 min before the substrate was added. […] The hydrolysis products H2N-Asp-Ile-Ala-Trp-COOH (SEQ ID NO:2) and H2 N-Phe-Asn-Thr-Pro-Glu-His-Val-Val-Pro-Tyr-Gly-Leu-Gly-COOH (SEQ ID NO:3) formed from the substrate by the enzymatic reaction were determined with the aid of high-pressure liquid chromatography (HPLC). […] The IC50 was calculated for each test substance in a known manner from the concentrations of hydrolysis products measured in the various samples.

neutral endopeptidase (NEP), purified NEP (E.C.3.4.24.11), sequence (P08473 whole entry): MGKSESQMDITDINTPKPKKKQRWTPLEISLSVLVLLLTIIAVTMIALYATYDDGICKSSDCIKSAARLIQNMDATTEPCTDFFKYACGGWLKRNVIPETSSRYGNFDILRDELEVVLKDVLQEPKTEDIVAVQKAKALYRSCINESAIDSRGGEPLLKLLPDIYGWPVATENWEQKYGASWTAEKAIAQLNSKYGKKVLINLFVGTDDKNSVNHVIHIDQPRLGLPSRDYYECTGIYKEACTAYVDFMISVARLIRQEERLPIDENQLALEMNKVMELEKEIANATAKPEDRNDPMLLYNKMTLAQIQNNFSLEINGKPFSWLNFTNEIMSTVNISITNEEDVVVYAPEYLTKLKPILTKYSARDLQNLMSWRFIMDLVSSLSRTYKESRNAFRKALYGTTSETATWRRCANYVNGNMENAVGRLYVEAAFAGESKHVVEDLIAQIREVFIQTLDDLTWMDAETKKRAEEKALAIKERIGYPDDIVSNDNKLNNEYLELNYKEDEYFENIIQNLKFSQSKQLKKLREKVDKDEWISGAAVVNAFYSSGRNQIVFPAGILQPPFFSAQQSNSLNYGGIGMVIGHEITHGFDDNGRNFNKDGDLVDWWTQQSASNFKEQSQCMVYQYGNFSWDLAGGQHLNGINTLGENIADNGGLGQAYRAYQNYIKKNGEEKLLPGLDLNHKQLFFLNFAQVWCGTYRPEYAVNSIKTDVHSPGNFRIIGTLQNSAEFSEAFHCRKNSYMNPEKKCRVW

pKi [1]	SMILES	Minimum toxic dose [2] [mg/kg]	further results
8.59	COCCOC[C@H](CC1(C(=O)N[C@H]2COc3ccccc3N(CC(=O)O)C2=O)CCCC1)C(=O)O [Example 11, (3S,2'S)-3-{1-[2'-Carboxy-3'-(2-methoxyethoxy)propyl]cyclopentane-1-carbonylamino}-4-oxo-3,4-dihydro-1,5-benzoxazepine-5(2H)-acetic acid]	–	–
–	O=C(O)CN1C(=O)C(NC(=O)C2(CC(Cc3ccccc3)C(=O)O)CCCC2)CCc2ccccc21 (stereo not drawn) [Example 27]	> 300	–
8.97	O=C(O)CN1C(=O)[C@@H](NC(=O)C2(CC(Cc3ccccc3)C(=O)O)CCCC2)CCc2ccccc21 (stereo partly drawn) [Example 29]	–	–
–	CCOC(=O)[C@H](CCc1ccccc1)CC1(C(=O)N[C@H]2CCc3ccccc3N(CC(=O)O)C2=O)CCCC1 [Example 4, (3S,2'R)-3-{1-[2'-(Ethoxycarbonyl)-4'-phenylbutyl]cyclopentane-1-carbonylamino}-2,3,4,5-tetrahydro-2-oxo-1H-1-benzazepine-1-acetic acid]	–	Increase in the excretion of urine under volume loading after administration of test substance as % based on the increase after placebo administration ([3]; 15 mg/kg p.o.): 196.5%; Increase in the excretion of urine under volume loading after administration of test substance as % based on the increase after placebo administration ([3]; 51 mg/kg p.o.): 271%
8.91	O=C(O)CN1C(=O)C(NC(=O)C2(CC(CCOc3ccc(F)cc3)C(=O)O)CCCC2)CCc2ccccc21 (stereo not drawn) [Example 26]	–	–
9.12	O=C(O)CN1C(=O)[C@@H](NC(=O)C2(CC(CCOc3ccc(F)cc3)C(=O)O)CCCC2)CSc2ccccc21 (stereo partly drawn) [Example 13, (3R)-3-{1-[2'-Carboxy-4'-(4-fluorophenoxy)butyl]cyclopentane-1-carbonylamino}-4-oxo-3,4-dihydro-1,5-benzothiazepine-5(2H)-acetic acid]	–	–
–	O=C(O)CN1C(=O)C(NC(=O)C2(CC(Cc3cccc4ccccc34)C(=O)O)CCCC2)CCc2ccccc21 (stereo not drawn) [Example 38]	–	pIC50 [4]: 5.66
8.67	COCCOC[C@H](CC1(C(=O)N[C@H]2CCc3ccccc3N(CC(=O)O)C2=O)CCCC1)C(=O)O [Example 22]	–	–
–	O=C(O)CN1C(=O)[C@@H](NC(=O)C2(C[C@@H](CCc3ccccc3)C(=O)O)CCCC2)CCc2ccccc21 [Example 37]	> 300	–
–	O=C(O)CN1C(=O)[C@@H](NC(=O)C2(C[C@@H](CCc3cccc4ccccc34)C(=O)O)CCCC2)CCc2ccccc21 [Example 39]	–	pIC50 [4]: 6.28

SMILES	pKi [1]	Minimum toxic dose [2] [mg/kg]	further results
O=C(O)CN1C(=O)C(NC(=O)C2(CC(CCc3ccccc3)C(=O)O)CCCC2)CCc2ccccc21 (stereo not drawn) [Example 6, 3-[1-(2'-Carboxy-4'-phenylbutyl)cyclopentane-1-carbonylamino]-2,3,4,5-tetrahydro-2-oxo-1H-1-benzazepine-1-acetic acid]	9.17	> 300	–
O=C(O)CN1C(=O)C(NC(=O)C2(CC(CCc3cccc4ccccc34)C(=O)O)CCCC2)CCc2ccccc21 (stereo not drawn) [Example 24]	9.00	> 300	–
